Experiments:
Type in all cases: in vivo
[1] = system: Plutella xylostella (Diamond Back Moth); assay: Activity against Plutella xylostella (diamond back moth), treated artificial diet; settings: 192 h, application rate of 200 ppm, Plutella eggs, 8 days after infestation, read-out: effect in at least one of the two categories (mortality or growth inhibition)
Procedure: Example B4: Activity Against Plutella xylostella (Diamond Back Moth)
24-well microtiter plates with artificial diet were treated with aqueous test solutions prepared from 10′000 ppm DMSO stock solutions by pipetting. After drying, Plutella eggs were pipetted through a plastic stencil onto a gel blotting paper and the plate was closed with it. The samples were assessed for mortality and growth inhibition in comparison to untreated samples 8 days after infestation.
(§1) The following compounds gave an effect of at least 80% in at least one of the two categories (mortality or growth inhibition) at an application rate of 200 ppm: […]

[2] = system: Diabrotica Balteata (Corn Root Worm); assay: Activity against Diabrotica balteata (corn root worm), sprayed maize sprouts; settings: 96 h, application rate of 200 ppm, L2 larvae, 4 days after infestation, read-out: effect in at least one of the two categories (mortality or growth inhibition)
Procedure: Example B2: Activity Against Diabrotica Balteata (Corn Root Worm)
Maize sprouts placed onto an agar layer in 24-well microtiter plates were treated with aqueous test solutions prepared from 10′000 ppm DMSO stock solutions by spraying. After drying, the plates were infested with L2 larvae (6 to 10 per well). The samples were assessed for mortality and growth inhibition in comparison to untreated samples 4 days after infestation.
as §1

[3] = system: Myzus persicae (Green Peach Aphid); assay: Activity against Myzus persicae (green peach aphid), feeding/contact activity, sunflower leaf discs; settings: foliar, 144 h, application rate of 200 ppm, aphid population of mixed ages, 6 days after infestation
Procedure: Example B5: Activity Against Myzus persicae (Green Peach Aphid) Feeding/Contact Activity
Sunflower leaf discs were placed onto agar in a 24-well microtiter plate and sprayed with aqueous test solutions prepared from 10′000 ppm DMSO stock solutions. After drying, the leaf discs were infested with an aphid population of mixed ages. The samples were assessed for mortality 6 days after infestation.

[4] = system: Euschistus heros (Neotropical Brown Stink Bug); assay: Activity against Euschistus heros (neotropical brown stink bug), sprayed soybean leaves; settings: 120 h, application rate of 200 ppm, N2 nymphs, 5 days after infestation, read-out: effect in at least one of the two categories (mortality or growth inhibition)
Procedure: Example B3: Activity Against Euschistus heros (Neotropical Brown Stink Bug)
Soybean leaves on agar in 24-well microtiter plates were sprayed with aqueous test solutions prepared from 10′000 ppm DMSO stock solutions. After drying the leaves were infested with N2 nymphs. The samples were assessed for mortality and growth inhibition in comparison to untreated samples 5 days after infestation.
as §1

[5] = system: Myzus persicae (Green Peach Aphid); assay: Activity against Myzus persicae (green peach aphid), systemic activity, pea seedling roots in test solution; settings: 144 h, test rate of 24 ppm, aphid population of mixed ages, 6 days after placing seedlings into test solutions
Procedure: Example B6: Activity Against Myzus persicae (Green Peach Aphid) Systemic Activity
Roots of pea seedlings infested with an aphid population of mixed ages were placed directly into aqueous test solutions prepared from 10′000 DMSO stock solutions. The samples were assessed for mortality 6 days after placing seedlings into test solutions.

[6] = system: Spodoptera littoralis (Egyptian Cotton Leaf Worm); assay: Activity against Spodoptera littoralis (Egyptian cotton leaf worm), sprayed cotton leaf discs; settings: foliar, 72 h, application rate of 200 ppm, L1 larvae, 3 days after infestation
Procedure: Example B7: Activity Against Spodoptera littoralis (Egyptian Cotton Leaf Worm)
Cotton leaf discs were placed onto agar in 24-well microtiter plates and sprayed with aqueous test solutions prepared from 10′000 ppm DMSO stock solutions. After drying the leaf discs were infested with five L1 larvae. The samples were assessed for mortality, anti-feeding effect, and growth inhibition in comparison to untreated samples 3 days after infestation. Control of Spodoptera littoralis by a test sample is given when at least one of the categories mortality, anti-feedant effect, and growth inhibition is higher than the untreated sample.

[7] = system: Bemisia tabaci (Cotton White Fly); assay: Activity against Bemisia tabaci (cotton white fly), sprayed cotton leaf discs; settings: foliar, 144 h, application rate of 200 ppm, adult white flies, 6 days after incubation
Procedure: Example B1: Activity Against Bemisia tabaci (Cotton White Fly)
Cotton leaf discs were placed on agar in 24-well microtiter plates and sprayed with aqueous test solutions prepared from 10′000 ppm DMSO stock solutions. After drying the leaf discs were infested with adult white flies. The samples were checked for mortality 6 days after incubation.

CCS(=O)(=O)c1cc(N(C)C(C)=O)cnc1-c1ncc(OCC(F)(F)C(F)(F)F)c(=O)n1C [Compound P5, N-[5-ethylsulfonyl-6-[1-methyl-6-oxo-5-(2,2,3,3,3-pentafluoropropoxy)-pyrimidin-2-yl]-3-pyridyl]-N-methyl-acetamide]
≥ 80%: percent effect (mortality or growth inhibition) at 200 ppm [1] | percent effect (mortality or growth inhibition) at 200 ppm [2] | mortality at 200 ppm [3] | percent effect (mortality or growth inhibition) at 200 ppm [4] | mortality at 24 ppm [5]

CCS(=O)(=O)c1cc(C2CC2)cnc1-c1ncc(OCC(F)(F)C(F)(F)F)c(=O)n1C [Compound P18, 2-(5-cyclopropyl-3-ethylsulfonyl-2-pyridyl)-3-methyl-5-(2,2,3,3,3-pentafluoropropoxy) pyrimidin-4-one]
≥ 80%: percent effect (mortality or growth inhibition) at 200 ppm [1] | percent effect (mortality or growth inhibition) at 200 ppm [2] | mortality at 200 ppm [3] | percent effect (mortality or growth inhibition) at 200 ppm [4] | percent control (mortality, anti-feedant effect or growth inhibition) at 200 ppm [6] | mortality at 24 ppm [5]

CCS(=O)(=O)c1ccc(-n2cncn2)nc1-c1ncc(OCC(F)(F)C(F)(F)F)c(=O)n1C [Compound P14, 2-[3-ethylsulfonyl-6-(1,2,4-triazol-1-yl)-2-pyridyl]-3-methyl-5-(2,2,3,3,3-pentafluoropropoxy) pyrimidin-4-one]
≥ 80%: percent effect (mortality or growth inhibition) at 200 ppm [1] | percent effect (mortality or growth inhibition) at 200 ppm [2] | mortality at 200 ppm [3] | percent effect (mortality or growth inhibition) at 200 ppm [4] | mortality at 200 ppm [7] | percent control (mortality, anti-feedant effect or growth inhibition) at 200 ppm [6] | mortality at 24 ppm [5]

CCS(=O)(=O)c1cccnc1-c1ncc(OCC(F)(F)C(F)(F)F)c(=O)n1C [Compound P2, 2-(3-ethylsulfonyl-2-pyridyl)-3-methyl-5-(2,2,3,3,3-pentafluoro-propoxy)pyrimidin-4-one]
≥ 80%: percent effect (mortality or growth inhibition) at 200 ppm [1] | percent effect (mortality or growth inhibition) at 200 ppm [2] | mortality at 200 ppm [3] | percent effect (mortality or growth inhibition) at 200 ppm [4] | mortality at 200 ppm [7] | percent control (mortality, anti-feedant effect or growth inhibition) at 200 ppm [6] | mortality at 24 ppm [5]

CCS(=O)(=O)c1cc(C(C)(C)C#N)cnc1-c1ncc(OCC(F)(F)C(F)(F)F)c(=O)n1C [Compound P13, 2-[5-ethylsulfonyl-6-[1-methyl-6-oxo-5-(2,2,3,3,3-pentafluoropropoxy)pyrimidin-2-yl]-3-pyridyl]-2-methyl-propanenitrile]
≥ 80%: percent effect (mortality or growth inhibition) at 200 ppm [1] | percent effect (mortality or growth inhibition) at 200 ppm [2] | percent effect (mortality or growth inhibition) at 200 ppm [4] | mortality at 200 ppm [7] | percent control (mortality, anti-feedant effect or growth inhibition) at 200 ppm [6] | mortality at 24 ppm [5]

CCS(=O)(=O)c1ccc(N(C)C(C)=O)nc1-c1ncc(OCC(F)(F)C(F)(F)F)c(=O)n1C [Compound P9, N-[5-ethylsulfonyl-6-[1-methyl-6-oxo-5-(2,2,3,3,3-pentafluoropropoxy)-pyrimidin-2-yl]-2-pyridyl]-N-methyl-acetamide]
≥ 80%: percent effect (mortality or growth inhibition) at 200 ppm [1] | percent effect (mortality or growth inhibition) at 200 ppm [2] | mortality at 200 ppm [3] | mortality at 200 ppm [7] | mortality at 24 ppm [5]

CCS(=O)(=O)c1ccc(N(C)C(=O)NC)nc1-c1ncc(OCC(F)(F)C(F)(F)F)c(=O)n1C [Compound P15, 1-[5-ethylsulfonyl-6-[1-methyl-6-oxo-5-(2,2,3,3,3-pentafluoropropoxy)pyrimidin-2-yl]-2-pyridyl]-1,3-dimethyl-urea]
≥ 80%: mortality at 200 ppm [3] | percent effect (mortality or growth inhibition) at 200 ppm [4] | mortality at 24 ppm [5]

CCS(=O)(=O)c1ccc(N(C)C(=O)C2CC2)nc1-c1ncc(OCC(F)(F)C(F)(F)F)c(=O)n1C [Compound P16, N-[5-ethylsulfonyl-6-[1-methyl-6-oxo-5-(2,2,3,3,3-pentafluoropropoxy)pyrimidin-2-yl]-2-pyridyl]-N-methyl-cyclo-propanecarboxamide]
≥ 80%: percent effect (mortality or growth inhibition) at 200 ppm [1] | percent effect (mortality or growth inhibition) at 200 ppm [2] | mortality at 200 ppm [3] | percent effect (mortality or growth inhibition) at 200 ppm [4] | mortality at 200 ppm [7] | percent control (mortality, anti-feedant effect or growth inhibition) at 200 ppm [6] | mortality at 24 ppm [5]

CCS(=O)(=O)c1cc(C2(C#N)CC2)cnc1-c1ncc(OCC(F)(F)C(F)(F)F)c(=O)n1C [Compound P11, 1-[5-ethylsulfonyl-6-[1-methyl-6-oxo-5-(2,2,3,3,3-pentafluoropropoxy)-pyrimidin-2-yl]-3-pyridyl]cyclopropanecarbonitrile]
≥ 80%: percent effect (mortality or growth inhibition) at 200 ppm [1] | percent effect (mortality or growth inhibition) at 200 ppm [2] | mortality at 200 ppm [3] | percent effect (mortality or growth inhibition) at 200 ppm [4] | mortality at 200 ppm [7] | percent control (mortality, anti-feedant effect or growth inhibition) at 200 ppm [6] | mortality at 24 ppm [5]

CCS(=O)(=O)c1cc(Oc2ccccn2)cnc1-c1ncc(OCC(F)(F)C(F)(F)F)c(=O)n1C [Compound P20, 2-[3-ethylsulfonyl-5-(2-pyridyloxy)-2-pyridyl]-3-methyl-5-(2,2,3,3,3-pentafluoropropoxy) pyrimidin-4-one]
≥ 80%: percent effect (mortality or growth inhibition) at 200 ppm [1] | percent effect (mortality or growth inhibition) at 200 ppm [2] | mortality at 200 ppm [3] | percent effect (mortality or growth inhibition) at 200 ppm [4] | percent control (mortality, anti-feedant effect or growth inhibition) at 200 ppm [6] | mortality at 24 ppm [5]

CCSc1cccnc1-c1ncc(OCC(F)(F)C(F)(F)F)c(=O)n1C [Compound P1, 2-(3-ethylsulfanyl-2-pyridyl)-3-methyl-5-(2,2,3,3,3-pentafluoro-propoxy)pyrimidin-4-one]
≥ 80%: percent effect (mortality or growth inhibition) at 200 ppm [1] | percent effect (mortality or growth inhibition) at 200 ppm [2] | mortality at 200 ppm [3] | percent effect (mortality or growth inhibition) at 200 ppm [4] | mortality at 200 ppm [7] | mortality at 24 ppm [5]

— US20220144799A1, “PESTICIDALLY ACTIVE HETEROCYCLIC DERIVATIVES WITH SULFUR CONTAINING SUBSTITUENTS” (SYNGENTA CROP PROTECTION AG, priority 2019, published 2022)
